Results as given in patent US7589080B2, “β-cyclodextrin compositions, and use to prevent transmission of sexually transmitted diseases” (priority 2000, dated 2009).

Assays:
HIV = settings: inhibition of sphingolipid synthesis; cited from earlier work
vaginal epithelium = test: Vaginal epithelial toxicity (ethidium bromide homodimer-1 staining); assay type: in vivo, CF-1 mice; settings: 1% (w/v), intravaginal, 15 min
Method: CF-1 mice were pretreated with 2.5 mg progestin; one week later, three groups of three mice each were inoculated with 50 Tl of either PBS, 1% (w/v) nonoxynol-9, or 3% (w/v) 2-OH-βCD (20 mM). Each test solution also contained the membrane-impermeant DNA binding fluorescent dye, ethidium bromide homodimer-1 (20 TM, Molecular Probes; Eugene Oreg.; Hyytinen et al., supra, 1994). Fifteen min following exposure to the test agents the mice were euthanized, the vaginas were dissected and opened longitudinally, and viewed using a fluorescent microscope and TRITC filter set.
To examine the effect of a βCD on the vaginal epithelium, CF-1 mice were pretreated with progesterone and one week later were inoculated with 50 Tl of either phosphate buffered saline (PBS), 1% (w/v) nonoxynol-9, or 3% (w/v) 2-OH-βCD (20 mM) containing the membrane impermeant DNA binding fluorescent dye, ethidium bromide homodimer-1. The vaginas of the mice were viewed by fluorescent microscopy.

Row | Compound | Reduction of HIV infection of CD4+ human cells (HIV) [%] | Damage to vaginal epithelium (vaginal epithelium)
1 | CCCCCCCCCCCCCCCC(=O)NC(CN1CCOCC1)C(O)c1ccccc1 (centres unmarked) [PPMP, 1-phenyl-2-hexadecanoylamino-3-morpholino-1-propanol] | 50 | –
2 | nonoxynol-9 | – | considerable epithelial damage
